Data from patent publication US20110008328A1, “METHOD FOR CONTROLLING GLUCOSE UPTAKE AND INSULIN SENSITIVITY” (Pfizer Inc., priority 2007, published 2011).

Columns and labels:
[1] = Hyperinsulinemic euglycemic clamp in Zucker rats (rate of glucose disposal, Rd); assay type: in vivo, rat; conditions: obese Zucker (fa/fa) rats, post-Rx, pioglitazone 10 mg/kg/day in chow for 3 weeks; average ± standard error
Experimental: Peripheral insulin sensitivity (measured as the rate of glucose disposal, Rd) of the rat and human groups was measured using the hyperinsulinemic euglycemic clamp procedure. Clinical characteristics of the rats and humans are detailed in Table 1. OPN expression in adipose tissue was elevated in obese, insulin resistant rats (17-fold) and humans (4.6-fold) compared to insulin sensitive lean controls. […] In fact, when the pre-treatment patient data was combined, there was a significant correlation between adipose tissue OPN RNA levels and Rd (FIG. 1C).
Male C57Bl/6J WT mice (cat #000664) and OPN KO mice (B6.Cg-Spp1tm2blh/J, cat #004936) were purchased from Jackson Laboratories. […]
(§1) Insulin sensitivity was determined by hyperinsulinemic euglycemic clamp, as previously published (Hevener, A L, et al., 2001, Diabetes 50, 2316-2322). […] Plasma glucose specific activity was measured after deproteinization with barium hydroxide and zinc sulfate (Revers, R R, 1984, J Clin Invest 73, 664-672). Hepatic glucose output (HGO) and glucose disposal rate (GDR) were calculated for the basal period and the steady-state portion of the glucose clamp using the Steele equation for steady-state conditions (Steele R. Influences of glucose loading and of injected insulin on hepatic glucose output. Ann N Y Acad Sci 82: 420-430, 1959). […]

[2] = Body weight and fasting plasma analyses in Zucker rats; assay type: in vivo, rat; conditions: obese Zucker (fa/fa) rats, post-Rx, pioglitazone 10 mg/kg/day in chow for 3 weeks; average ± standard error
Excerpt: Male C57Bl/6J WT mice (cat #000664) and OPN KO mice (B6.Cg-Spp1tm2blh/J, cat #004936) were purchased from Jackson Laboratories. This OPN KO mouse line has been backcrossed into the C57Bl/6J background >10 generations. Mouse diets were as follows: normal chow diet (12% kcal from fat; Purina 5001, LabDiet) and high fat diet (41% kcal from fat; TD96132, Harlan Teklad). Mice were 4-6 months of age and age-matched in all studies. Male lean Zucker (fa/+) and fatty Zucker (fa/fa) rats were purchased from Charles River. […] All rats were nine weeks of age at time of terminal metabolic studies and tissue harvest. All animals were housed 1-3 per cage under controlled light (12:12 light:dark) and climate conditions. Animals had unlimited access to food and water.
as §1
Plasma insulins were measured by radioimmune assay kit (Linco Research, St. Charles, Mo.). Plasma FFA levels were measured enzymatically using a commercially available kit (NEFA C; Wako Chemicals USA). Triglycerides were measured using the Triglyceride-SL Assay (Diagnostic Chemicals Ltd.). Cholesterol was measured using the Chol kit and Roche/Hitachi analyzer (Roche). Tissue lysates were analyzed by SDS-PAGE, western blotting and chemiluminescence and by ELISA. Signal intensities of chemiluminescence autoradiographs were densitometrically quantified using a digital Kodak 3D Imagestation and associated digital image analysis software (Kodak, New. Haven, Conn.). […]

[3] = BMI and fasting plasma analyses in human patients; assay type: in vivo; conditions: post-Rx, pioglitazone 45 mg/day for 3 months, average ± standard error
Experimental: Baseline plasma samples were drawn and hyperinsulinemic-euglycemic clamps were performed in the morning after a 10 hr fast as previously described (Frias, J P et al., 2000, Diabetes Care 23, 64-69; Yu, J G et al., 2002, Diabetes 51, 2968-2974). The experimental protocol was approved by the Institutional Review Board of the University of California, San Diego. Informed written consent was obtained from each subject.
Plasma insulins were measured by radioimmune assay kit (Linco Research, St. Charles, Mo.). Plasma FFA levels were measured enzymatically using a commercially available kit (NEFA C; Wako Chemicals USA). Triglycerides were measured using the Triglyceride-SL Assay (Diagnostic Chemicals Ltd.). Cholesterol was measured using the Chol kit and Roche/Hitachi analyzer (Roche). Tissue lysates were analyzed by SDS-PAGE, western blotting and chemiluminescence and by ELISA. Signal intensities of chemiluminescence autoradiographs were densitometrically quantified using a digital Kodak 3D Imagestation and associated digital image analysis software (Kodak, New. Haven, Conn.). IL-1β, IL-12p70, IFNγ, IL-6, IL-10, Cxcl1 and TNFα levels in plasma and tissue lysates were measured using a multiplex (7-plex) ELISA (Meso Scale Discovery).

[4] = Hyperinsulinemic-euglycemic clamp in human patients (rate of glucose disposal, Rd); assay type: in vivo; conditions: obese, insulin resistant patients, post-Rx, pioglitazone 45 mg/day for 3 months; average ± standard error
[5] = lean, insulin sensitive patients
[6] = obese, insulin resistant patients

Q: For CCc1ccc(CCOc2ccc(CC3SC(=O)NC3=O)cc2)nc1 (stereo not shown) [pioglitazone], which “Glucose disposal, Rd” value [1] is on record?
A: 30.6 ± 2.9 mg/kg/min

Q: And the “Fasting plasma free fatty acids” value [2]?
A: 0.69 ± 0.29 mmol/L

Q: What about the Fasting plasma glucose [2] of the same compound?
A: 124.8 ± 4.0 ^ mg/dL

Q: And the Fasting plasma triglyceride [2]?
A: 108.0 ± 16.1 mg/dL

Q: And the Fasting plasma free fatty acids [3, 5]?
A: 414 ± 90 µM

Q: What about the Fasting plasma glucose [3, 5] of the same compound?
A: 87.6 ± 3.1 mg/dL

Q: And the Fasting plasma insulin [3, 5]?
A: 10.1 ± 2.2 pmol/L

Q: And the Fasting plasma triglyceride [3, 5]?
A: 76.0 ± 9.2 mg/dL

Q: What about the Fasting plasma free fatty acids [3, 6] of the same compound?
A: 434 ± 59 µM

Q: And the Fasting plasma glucose [3, 6]?
A: 91.7 ± 2.5 mg/dL

Q: What about the Fasting plasma insulin [3, 6] of the same compound?
A: 13.6 ± 1.6 pmol/L

Q: What about the Fasting plasma triglyceride [3, 6] of the same compound?
A: 137.7 ± 7.2 mg/dL

Q: What about the “Glucose disposal, Rd” value [4] of the same compound?
A: 5.9 ± 0.5 mg/kg/min
